Test results taken from PubChem BioAssay AID256 (DTP/NCI, 2004).
“And” between values parts separate entries of the source, which are not always exact repeats. Equal values may be shown once. Toxic doses and inconclusive results are not listed.

System: CD2F1 mice, L1210 leukemia ip, survival T/C
Test: NCI In Vivo Anticancer Drug Screen. Data for tumor model L1210 Leukemia (intraperitoneal) in CD2F1 (CDF1) mice
Conditions: higher = longer survival
How it was run: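 Activity against a transplanted murine tumor was judged by comparing the compound group with a vehicle group. The outcome in the treated animals was divided by that in the controls.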

[1] = endpoint: mean survival time, dose: 25.0 mg/kg/injection, schedule: Q01DX009 (ip), vehicle: Klucel (hydroxypropylcellulose) (HPC)
[2] = endpoint: mean survival time, dose: 50.0 mg/kg/injection, schedule: Q01DX009 (ip), vehicle: Klucel (hydroxypropylcellulose) (HPC)
[3] = endpoint: mean survival time, dose: 100.0 mg/kg/injection, schedule: Q04DX002 (ip), vehicle: saline with Tween-80
[4] = endpoint: mean survival time, dose: 200.0 mg/kg/injection, schedule: Q04DX002 (ip), vehicle: saline with Tween-80
[5] = endpoint: mean survival time, dose: 400.0 mg/kg/injection, schedule: Q04DX002 (ip), vehicle: saline with Tween-80
[6] = endpoint: mean survival time, dose: 100.0 mg/kg/injection, schedule: Q01DX009 (ip), vehicle: saline with Tween-80
[7] = endpoint: mean survival time, dose: 200.0 mg/kg/injection, schedule: Q01DX009 (ip), vehicle: saline with Tween-80
[8] = endpoint: mean survival time, dose: 400.0 mg/kg/injection, schedule: Q01DX009 (ip), vehicle: saline with Tween-80
[9] = endpoint: mean survival time, dose: 100.0 mg/kg/injection, schedule: Q04DX003 (ip), vehicle: saline
[10] = endpoint: mean survival time, dose: 50.0 mg/kg/injection, schedule: Q01DX009 (ip), vehicle: saline with Tween-80
[11] = endpoint: mean survival time, dose: 100.0 mg/kg/injection, schedule: Q01DX001 (ip), vehicle: saline with Tween-80
[12] = endpoint: mean survival time, dose: 100.0 mg/kg/injection, schedule: Q04DX003 (ip), vehicle: saline with Tween-80
[13] = endpoint: mean survival time, dose: 200.0 mg/kg/injection, schedule: Q01DX001 (ip), vehicle: saline with Tween-80
[14] = endpoint: mean survival time, dose: 200.0 mg/kg/injection, schedule: Q04DX003 (ip), vehicle: saline with Tween-80
[15] = endpoint: mean survival time, dose: 400.0 mg/kg/injection, schedule: Q01DX001 (ip), vehicle: saline with Tween-80
[16] = endpoint: mean survival time, dose: 400.0 mg/kg/injection, schedule: Q04DX003 (ip), vehicle: saline with Tween-80

## Cc1cnc(/C=N\NC(N)=S)c2cccc(N)c12
endpoint: mean survival time, dose: 3.13 mg/kg/injection, schedule: Q01DX009 (ip), vehicle: Klucel (hydroxypropylcellulose) (HPC)
  T/C: 124 % of control
endpoint: mean survival time, dose: 3.13 mg/kg/injection, schedule: Q01DX009 (ip), vehicle: saline with Tween-80
  T/C: 122 % of control
endpoint: mean survival time, dose: 5.4 mg/kg/injection, schedule: Q03HX024 (ip), vehicle: Klucel (hydroxypropylcellulose) (HPC)
  T/C: 123 % of control
endpoint: mean survival time, dose: 8.0 mg/kg/injection, schedule: Q03HX024 (ip), vehicle: Klucel (hydroxypropylcellulose) (HPC)
  T/C: 151 % of control
endpoint: mean survival time, dose: 12.0 mg/kg/injection, schedule: Q03HX024 (ip), vehicle: Klucel (hydroxypropylcellulose) (HPC)
  T/C: 112 % of control
[1]
  T/C: 168 % of control
[2]
  T/C: 89 % of control
endpoint: median survival time, dose: 3.89 mg/kg/injection, schedule: Q01DX005 (ip), vehicle: other
  T/C: 114 % of control
endpoint: median survival time, dose: 6.48 mg/kg/injection, schedule: Q01DX005 (ip), vehicle: other
  T/C: 122 % of control

## COC1=CC=C2C3Cc4ccc(OC)c(O)c4C2(C1)CN3C (configuration not stated)
[1]
  T/C: 102 % of control
[2]
  T/C: 104 % of control
endpoint: mean survival time, dose: 100.0 mg/kg/injection, schedule: Q01DX009 (ip), vehicle: Klucel (hydroxypropylcellulose) (HPC)
  T/C: 103 % of control

## Nc1n[nH]c(=S)n1-c1ccc(Cl)cc1
endpoint: mean survival time, dose: 100.0 mg/kg/injection, schedule: Q01DX009 (ip), vehicle: acetone
  T/C: 97 % of control
endpoint: mean survival time, dose: 200.0 mg/kg/injection, schedule: Q01DX009 (ip), vehicle: acetone
  T/C: 101 % of control
endpoint: mean survival time, dose: 400.0 mg/kg/injection, schedule: Q01DX009 (ip), vehicle: acetone
  T/C: 106 % of control

## CC(=O)CN(C(C)=O)c1ccccc1
[3]
  T/C: 105 % of control
[4]
  T/C: 97 % of control
[5]
  T/C: 109 % of control

## COc1ccc(C=Nc2ccccc2)cc1
[6]
  T/C: 95 % of control
[7]
  T/C: 89 % of control
[8]
  T/C: 89 % of control

## COc1ccc(C2C3CCC(C3)C2N)cc1 (configuration not stated)
endpoint: mean survival time, dose: 5.0 mg/kg/injection, schedule: Q01DX009 (ip), vehicle: saline
  T/C: 96 % of control
endpoint: mean survival time, dose: 10.0 mg/kg/injection, schedule: Q01DX009 (ip), vehicle: saline
  T/C: 96 % of control
endpoint: mean survival time, dose: 20.0 mg/kg/injection, schedule: Q01DX009 (ip), vehicle: saline
  T/C: 92 % of control
endpoint: mean survival time, dose: 25.0 mg/kg/injection, schedule: Q04DX003 (ip), vehicle: saline
  T/C: 101 % of control
endpoint: mean survival time, dose: 50.0 mg/kg/injection, schedule: Q04DX003 (ip), vehicle: saline
  T/C: 96 % of control
[9]
  T/C: 90 % of control

## O=C([O][Bi]([c]1ccccc1)[c]1ccccc1)c1ccccc1
endpoint: median survival time, dose: 6.25 mg/kg/injection, schedule: Q01DX009 (ip), vehicle: Klucel (hydroxypropylcellulose) (HPC)
  T/C: 97 % of control
endpoint: median survival time, dose: 12.5 mg/kg/injection, schedule: Q01DX009 (ip), vehicle: Klucel (hydroxypropylcellulose) (HPC)
  T/C: 95 % of control
endpoint: median survival time, dose: 25.0 mg/kg/injection, schedule: Q01DX009 (ip), vehicle: Klucel (hydroxypropylcellulose) (HPC)
  T/C: 101 % of control

## COc1cc(C=O)ccc1OC(=O)Nc1cc([N+](=O)[O-])ccc1Cl
[10]
  T/C: 98 % of control and 102 % of control
[11]
  T/C: 93 % of control
[3]
  T/C: 92 % of control and 102 % of control
[12]
  T/C: 93 % of control
[13]
  T/C: 108 % of control
[4]
  T/C: 91 % of control and 92 % of control
[14]
  T/C: 107 % of control
[15]
  T/C: 96 % of control
[5]
  T/C: 88 % of control and 96 % of control
[16]
  T/C: 100 % of control

## CCOC(C(=O)OC1CCN(C)CC1)(c1ccccc1)c1ccccc1
endpoint: mean survival time, dose: 25.0 mg/kg/injection, schedule: Q01DX009 (ip), vehicle: saline with Tween-80
  T/C: 98 % of control
[10]
  T/C: 98 % of control
[6]
  T/C: 93 % of control

## COC(=O)CC(=O)c1ccc(OC(C)C)cc1
[6]
  T/C: 100 % of control
[12]
  T/C: 87 % of control
[7]
  T/C: 107 % of control
[14]
  T/C: 90 % of control
[8]
  T/C: 104 % of control
[16]
  T/C: 87 % of control

## O=[N+]([O-])c1ccc(CSc2ncnc3c2ncn3C2OC(COP(=O)(O)O)C(O)C2O)cc1 (configuration not stated)
endpoint: mean survival time, dose: 12.5 mg/kg/injection, schedule: Q01DX005 (ip), vehicle: water
  T/C: 100 % of control
endpoint: mean survival time, dose: 25.0 mg/kg/injection, schedule: Q01DX005 (ip), vehicle: water
  T/C: 96 % of control
endpoint: mean survival time, dose: 50.0 mg/kg/injection, schedule: Q01DX005 (ip), vehicle: water
  T/C: 104 % of control
endpoint: mean survival time, dose: 100.0 mg/kg/injection, schedule: Q01DX005 (ip), vehicle: water
  T/C: 105 % of control
endpoint: mean survival time, dose: 200.0 mg/kg/injection, schedule: Q01DX005 (ip), vehicle: water
  T/C: 111 % of control

## O=C(OCC1OC(OC2(COC(=O)c3ccccc3)OC(COC(=O)c3ccccc3)C(OC(=O)c3ccccc3)C2OC(=O)c2ccccc2)C(OC(=O)c2ccccc2)C(OC(=O)c2ccccc2)C1OC(=O)c1ccccc1)c1ccccc1 (configuration not stated)
[11]
  T/C: 100 % of control
[13]
  T/C: 100 % of control
[15]
  T/C: 102 % of control

## CC(C)C12CCC(=O)C=C1CCCC2O (configuration not stated)
endpoint: mean survival time, dose: 100.0 mg/kg/injection, schedule: Q04DX003 (ip), vehicle: saline sonified
  T/C: 100 % of control
endpoint: mean survival time, dose: 200.0 mg/kg/injection, schedule: Q04DX003 (ip), vehicle: saline sonified
  T/C: 100 % of control
endpoint: mean survival time, dose: 400.0 mg/kg/injection, schedule: Q04DX003 (ip), vehicle: saline sonified
  T/C: 97 % of control

## CCCCCCCS(=O)CCCl (configuration not stated)
[3]
  T/C: 96 % of control
[4]
  T/C: 108 % of control

## CC1=Nc2cc(Cl)c(Cl)cc2N(C)/C1=C/C1=C(Cl)C(=O)c2cc3c(Cl)ccc(Cl)c3cc2C1=O
[12]
  T/C: 94 % of control
[14]
  T/C: 97 % of control

## O=C(O)/C=C/C(=O)NNC(=O)/C=C/C(=O)O
[10]
  T/C: 94 % of control
[6]
  T/C: 96 % of control
[7]
  T/C: 91 % of control

## O=S(=O)(O)Cc1ccccc1O
endpoint: mean survival time, dose: 100.0 mg/kg/injection, schedule: Q01DX001 (ip), vehicle: saline
  T/C: 100 % of control
[9]
  T/C: 96 % of control
endpoint: mean survival time, dose: 200.0 mg/kg/injection, schedule: Q01DX001 (ip), vehicle: saline
  T/C: 100 % of control
endpoint: mean survival time, dose: 200.0 mg/kg/injection, schedule: Q04DX003 (ip), vehicle: saline
  T/C: 95 % of control
endpoint: mean survival time, dose: 400.0 mg/kg/injection, schedule: Q01DX001 (ip), vehicle: saline
  T/C: 102 % of control
endpoint: mean survival time, dose: 400.0 mg/kg/injection, schedule: Q04DX003 (ip), vehicle: saline
  T/C: 89 % of control

## Cc1ccc(S(=O)(=O)OCC(O)C2OCOC3COCOC32)cc1 (configuration not stated)
endpoint: mean survival time, dose: 100.0 mg/kg/injection, schedule: Q01DX001 (ip), vehicle: Klucel (hydroxypropylcellulose) (HPC)
  T/C: 101 % of control
endpoint: mean survival time, dose: 200.0 mg/kg/injection, schedule: Q01DX001 (ip), vehicle: Klucel (hydroxypropylcellulose) (HPC)
  T/C: 103 % of control
endpoint: mean survival time, dose: 400.0 mg/kg/injection, schedule: Q01DX001 (ip), vehicle: Klucel (hydroxypropylcellulose) (HPC)
  T/C: 98 % of control
endpoint: mean survival time, dose: 600.0 mg/kg/injection, schedule: Q01DX001 (ip), vehicle: Klucel (hydroxypropylcellulose) (HPC)
  T/C: 93 % of control

## Cc1ccc(NC(=O)CCl)cc1C
[6]
  T/C: 100 % of control
[12]
  T/C: 96 % of control
[7]
  T/C: 97 % of control
[14]
  T/C: 95 % of control
[16]
  T/C: 93 % of control

## c1ccc2c(c1)ccc1c[n+]3ccccc3cc12
endpoint: mean survival time, dose: 1.25 mg/kg/injection, schedule: Q01DX009 (ip), vehicle: saline with Tween-80
  T/C: 95 % of control
endpoint: mean survival time, dose: 5.0 mg/kg/injection, schedule: Q04DX003 (ip), vehicle: saline sonified
  T/C: 96 % of control

## C=COC(=O)C(Cc1ccccc1)NC(=O)OCc1ccccc1 (configuration not stated)
endpoint: median survival time, dose: 25.0 mg/kg/injection, schedule: Q01DX009 (ip), vehicle: saline with Tween-80
  T/C: 96 % of control
endpoint: median survival time, dose: 50.0 mg/kg/injection, schedule: Q01DX009 (ip), vehicle: saline with Tween-80
  T/C: 96 % of control
endpoint: median survival time, dose: 100.0 mg/kg/injection, schedule: Q01DX009 (ip), vehicle: saline with Tween-80
  T/C: 93 % of control
endpoint: median survival time, dose: 200.0 mg/kg/injection, schedule: Q01DX009 (ip), vehicle: saline with Tween-80
  T/C: 93 % of control
endpoint: median survival time, dose: 400.0 mg/kg/injection, schedule: Q01DX009 (ip), vehicle: saline with Tween-80
  T/C: 101 % of control

## O=C(O)/C(=C\c1ccccc1)NC(=O)c1ccccc1
[6]
  T/C: 95 % of control
[7]
  T/C: 96 % of control
[8]
  T/C: 105 % of control

## CC(C)=CC(C)OC(=O)N(C)C (configuration not stated)
[12]
  T/C: 97 % of control
[14]
  T/C: 94 % of control

## Cc1ccc(S(=O)(=O)F)c(Cl)c1
endpoint: mean survival time, dose: 50.0 mg/kg/injection, schedule: Q01DX009 (ip), vehicle: saline sonified
  T/C: 97 % of control
endpoint: mean survival time, dose: 100.0 mg/kg/injection, schedule: Q01DX009 (ip), vehicle: saline sonified
  T/C: 97 % of control
endpoint: mean survival time, dose: 200.0 mg/kg/injection, schedule: Q01DX009 (ip), vehicle: saline sonified
  T/C: 95 % of control
